# Results published in US20040038424A1, “Formaldehyde-ammonium salt complexes for the stabilization of blood cells” (priority 2002, published 2004).
# Legend:
# [1] = system: platelet granule marker CD62p on platelets; experiment: Percentage of CD62p positive platelets by flow cytometry (platelet activation state); type: cell-based, human; conditions: dibasic versus tribasic ammonium citrate in the reagent, FIGS. 11A and 11B
# From the text: When used to stabilize blood samples or fractions or other tissues containing platelets, the composition and methods of this invention preserve platelet activity in the state of activation substantially the same as that existing at the time of blood or platelet withdrawal from the blood or platelet donor. By “state of activation of the platelets” or “Activation Potential” as used herein is meant the percentage of platelets expressing the CD62p antigen, i.e., the percentage of platelets that bind CD62p fluorescently-labeled antibody as performed by flow cytometry, or CD62p positive platelets in the sample. The CD62p antigen represents a glycoprotein antigen that is unique to megakaryocyte, platelet, and endothelial cell secretory granules. […]
# Expression of CD62p is measured typically by flow cytometric analysis using dual or multi-parameter analyses, and particularly by staining the samples with labeled ligands that bind to CD62p on the platelets in the sample. The ligands are conventionally monoclonal antibodies to the antigen to be measured. […]
# The same protocol was conducted on activated blood samples. […] PAP was assessed using 2 μl of a 1/100 dilution (0.0324 mM) of stock PMA is added with 10 μl antibodies and 100 μl of diluent (PBS) and 2.5 μl of blood and incubated for 15 minutes (final concentration of 11.58 μM). […]
# cells = experiment: Cellular stabilization (several experiments); type: cell-based
smiles,measurement,setting,value
N.N.O=C(O)CC(O)(CC(=O)O)C(=O)O [dibasic ammonium citrate],stabilization of CD62p by ammonium salt type,[1],better stabilization
C1N2CN3CN1CN(C2)C3 [hexamethylenetetramine],effectiveness in cellular stabilization,cells,not effective
